Bounds are passed on as bounds.

The target of the assay is T1, Nav1.7 (or SCN9A) channel; HEK cells stably transfected with hSCN9A (Homo sapiens, UniProt Q15858).
T1 construct: expressed in transfected cells
T1 sequence (Q15858 whole entry): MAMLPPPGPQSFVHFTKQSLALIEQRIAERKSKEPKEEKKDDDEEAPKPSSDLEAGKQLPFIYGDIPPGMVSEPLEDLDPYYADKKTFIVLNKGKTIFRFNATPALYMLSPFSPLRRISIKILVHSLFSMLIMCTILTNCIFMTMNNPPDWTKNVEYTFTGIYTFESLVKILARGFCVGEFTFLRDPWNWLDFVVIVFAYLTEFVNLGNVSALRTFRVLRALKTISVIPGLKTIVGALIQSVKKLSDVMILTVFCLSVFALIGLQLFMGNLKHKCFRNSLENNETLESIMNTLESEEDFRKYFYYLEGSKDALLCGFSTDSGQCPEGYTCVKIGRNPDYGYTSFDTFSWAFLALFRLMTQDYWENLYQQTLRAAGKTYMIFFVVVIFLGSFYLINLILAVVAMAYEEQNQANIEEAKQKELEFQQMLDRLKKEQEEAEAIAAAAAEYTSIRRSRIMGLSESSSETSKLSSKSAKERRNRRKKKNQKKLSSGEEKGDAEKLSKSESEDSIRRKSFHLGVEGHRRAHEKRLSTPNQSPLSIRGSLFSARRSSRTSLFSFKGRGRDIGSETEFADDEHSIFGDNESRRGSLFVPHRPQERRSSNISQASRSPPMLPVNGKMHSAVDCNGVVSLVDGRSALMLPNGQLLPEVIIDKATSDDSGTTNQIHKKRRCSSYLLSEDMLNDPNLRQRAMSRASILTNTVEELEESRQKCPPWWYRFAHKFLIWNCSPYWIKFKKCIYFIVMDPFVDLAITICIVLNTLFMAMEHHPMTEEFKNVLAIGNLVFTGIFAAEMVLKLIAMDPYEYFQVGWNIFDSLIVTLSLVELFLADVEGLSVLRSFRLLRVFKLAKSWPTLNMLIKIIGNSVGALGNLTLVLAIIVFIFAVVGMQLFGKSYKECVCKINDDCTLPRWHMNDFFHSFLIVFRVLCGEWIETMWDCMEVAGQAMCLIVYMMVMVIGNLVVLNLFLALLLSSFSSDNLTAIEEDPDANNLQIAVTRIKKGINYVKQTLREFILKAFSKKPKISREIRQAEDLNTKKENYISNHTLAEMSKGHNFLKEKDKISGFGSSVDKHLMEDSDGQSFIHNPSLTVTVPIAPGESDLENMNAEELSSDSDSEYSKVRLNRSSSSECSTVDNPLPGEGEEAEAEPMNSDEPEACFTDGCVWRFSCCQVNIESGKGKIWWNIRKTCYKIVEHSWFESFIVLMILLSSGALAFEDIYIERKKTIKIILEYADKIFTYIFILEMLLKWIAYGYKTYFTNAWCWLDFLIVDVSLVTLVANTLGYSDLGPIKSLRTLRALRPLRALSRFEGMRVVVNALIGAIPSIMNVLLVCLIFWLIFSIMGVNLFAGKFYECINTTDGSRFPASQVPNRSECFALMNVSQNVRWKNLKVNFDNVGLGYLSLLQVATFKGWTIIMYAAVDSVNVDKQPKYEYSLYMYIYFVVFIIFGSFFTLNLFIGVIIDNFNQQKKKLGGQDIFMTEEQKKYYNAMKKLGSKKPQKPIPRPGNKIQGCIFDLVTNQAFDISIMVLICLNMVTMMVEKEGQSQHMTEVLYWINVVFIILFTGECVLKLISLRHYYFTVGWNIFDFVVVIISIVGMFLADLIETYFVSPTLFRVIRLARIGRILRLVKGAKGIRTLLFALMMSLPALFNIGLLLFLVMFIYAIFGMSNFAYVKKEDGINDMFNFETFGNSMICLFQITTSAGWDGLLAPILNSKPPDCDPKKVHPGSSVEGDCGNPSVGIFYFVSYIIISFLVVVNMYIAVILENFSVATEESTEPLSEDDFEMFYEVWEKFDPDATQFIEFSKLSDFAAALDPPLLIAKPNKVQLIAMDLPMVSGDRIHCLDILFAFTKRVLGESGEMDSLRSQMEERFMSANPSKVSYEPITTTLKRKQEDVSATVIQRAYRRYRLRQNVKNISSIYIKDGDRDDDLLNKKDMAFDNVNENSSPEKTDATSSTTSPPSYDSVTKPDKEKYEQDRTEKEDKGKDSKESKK
Kind of assay: Nav1.7 block, PatchXpress 7000 automated whole-cell voltage clamp, estimated IC50 (EIC50). It is filed as cell-based. Conditions: estimated IC50; hSCN9A HEK cells, PatchXpress platform; Examples 283-814.
For the molecule `CCn1nc(C(F)(F)F)cc1-c1ccc(Oc2ccc(S(=O)(=O)Nc3ncns3)cc2Cl)cc1` [Example 473, 3-chloro-4-{4-[1-ethyl-3-(trifluoromethyl)-1H-pyrazol-5-yl]phenoxy}-N-1,2,4-thiadiazol-5-ylbenzenesulfonamide], the concentration for half-maximal inhibition (IC50) (usually the concentration needed to halve the response being measured) is 72 nM.

Take `CC(C)(C)n1nccc1-c1cc(Cl)ccc1Oc1ccc(S(=O)(=O)Nc2ncns2)cc1Cl` [Example 474, 4-[2-(1-tert-butyl-1H-pyrazol-5-yl)-4-chlorophenoxy]-3-chloro-N-1,2,4-thiadiazol-5-ylbenzenesulfonamide]: the concentration for half-maximal inhibition (IC50) is 44 nM.

For the molecule `O=S(=O)(Nc1ncns1)c1ccc(Oc2ccc(Cl)cc2-c2ccn[nH]2)c(Cl)c1` [Example 475, 3-chloro-4-[4-chloro-2-(1H-pyrazol-5-yl)phenoxy]-N-1,2,4-thiadiazol-5-ylbenzenesulfonamide], the IC50 was 7.5 nM.

`CC(C)(C)n1nccc1-c1cc(F)ccc1Oc1ccc(S(=O)(=O)Nc2ncns2)cc1Cl` [Example 476, 4-[2-(1-tert-butyl-1H-pyrazol-5-yl)-4-fluorophenoxy]-3-chloro-N-1,2,4-thiadiazol-5-ylbenzenesulfonamide]: the half-inhibitory concentration (IC50) is 170 nM.

On to `O=S(=O)(Nc1ncns1)c1ccc(Oc2ccc(Cl)cc2C2CCNCC2)c(Cl)c1` [Example 477, 3-chloro-4-(4-chloro-2-piperidin-4-ylphenoxy)-N-1,2,4-thiadiazol-5-ylbenzenesulfonamide], for which the IC50 is 16 nM.

Regarding `O=S(=O)(Nc1ncns1)c1ccc(Oc2ccc(F)cc2-c2ccn[nH]2)c(Cl)c1` [Example 478, 3-chloro-4-[4-fluoro-2-(1H-pyrazol-5-yl)phenoxy]-N-1,2,4-thiadiazol-5-ylbenzenesulfonamide], the 50% inhibitory concentration (IC50) is 44 nM.

For the molecule `CCn1nc(C(F)(F)F)cc1-c1cccc(Oc2ccc(S(=O)(=O)Nc3ncc(F)s3)cc2C#N)c1` [Example 479, 3-cyano-4-{3-[1-ethyl-3-(trifluoromethyl)-1H-pyrazol-5-yl]phenoxy}-N-(5-fluoro-1,3-thiazol-2-yl)benzenesulfonamide], the half-maximal inhibitory concentration (IC50) is 230 nM.

Consider `N#Cc1cc(S(=O)(=O)Nc2nccs2)ccc1Oc1ccc(-c2cc(C(F)(F)F)n(CCCF)n2)cc1F` [Example 480, 3-cyano-4-{2-fluoro-4-[1-(3-fluoropropyl)-5-(trifluoromethyl)-1H-pyrazol-3-yl]phenoxy}-N-1,3-thiazol-2-ylbenzenesulfonamide], for which the IC50 is >1000 nM.

`Cc1cc(-c2cccc(Oc3ccc(S(=O)(=O)Nc4nccs4)cc3C#N)c2)n(CCN(C)C)n1` [Example 481, 3-cyano-4-(3-{1-[2-(dimethylamino)ethyl]-3-methyl-1H-pyrazol-5-yl}phenoxy)-N-1,3-thiazol-2-ylbenzenesulfonamide]: the concentration for half-maximal inhibition (IC50) is 1700 nM.

Turning to `N#Cc1cc(S(=O)(=O)Nc2nccs2)ccc1Oc1ccc(-c2cn(CC(F)(F)F)nc2N)cc1` [Example 482, 4-{4-[3-amino-1-(2,2,2-trifluoroethyl)-1H-pyrazol-4-yl]phenoxy}-3-cyano-N-1,3-thiazol-2-ylbenzenesulfonamide], the IC50 was >1000 nM.

In the case of `Cn1cc(-c2ccc(Oc3ccc(S(=O)(=O)Nc4nccs4)cc3C#N)cc2)c(N)n1` [Example 483, 4-[4-(3-amino-1-methyl-1H-pyrazol-4-yl)phenoxy]-3-cyano-N-1,3-thiazol-2-ylbenzenesulfonamide], the IC50 was >1000 nM.

For the molecule `CC1CN(c2ccc(Oc3ccc(S(=O)(=O)Nc4nccs4)cc3C#N)cc2)C(=O)N1` (stereo not shown) [Example 484, 3-cyano-4-[4-(4-methyl-2-oxoimidazolidin-1-yl)phenoxy]-N-1,3-thiazol-2-ylbenzenesulfonamide], the concentration for half-maximal inhibition (IC50) was >1000 nM.

As for `CC(C)C1CN(c2ccc(Oc3ccc(S(=O)(=O)Nc4nccs4)cc3C#N)cc2)C(=O)N1` (stereo not shown) [Example 485, 3-cyano-4-[4-(4-isopropyl-2-oxoimidazolidin-1-yl)phenoxy]-N-1,3-thiazol-2-ylbenzenesulfonamide], the IC50 was >1000 nM.

Take `N#Cc1cc(S(=O)(=O)Nc2nccs2)ccc1Oc1ccc(N2CCNC2=O)cc1` [Example 486, 3-cyano-4-[4-(2-oxoimidazolidin-1-yl)phenoxy]-N-1,3-thiazol-2-ylbenzenesulfonamide]: the concentration for half-maximal inhibition (IC50) is >1000 nM.

Turning to `CN1CCN(c2ccc(Oc3ccc(S(=O)(=O)Nc4nccs4)cc3C#N)cc2)C1=O` [Example 487, 3-cyano-4-[4-(3-methyl-2-oxoimidazolidin-1-yl)phenoxy]-N-1,3-thiazol-2-ylbenzenesulfonamide], the IC50 is >1000 nM.

As to `N#Cc1cc(S(=O)(=O)Nc2nccs2)ccc1Oc1ccc(N2CCCC2=O)cc1` [Example 488, 3-cyano-4-[4-(2-oxopyrrolidin-1-yl)phenoxy]-N-1,3-thiazol-2-ylbenzenesulfonamide], the IC50 is >1000 nM.

On to `CCc1cc(-n2cccn2)ccc1Oc1ccc(S(=O)(=O)Nc2nccs2)cc1C#N` [Example 489, 3-cyano-4-[2-ethyl-4-(1H-pyrazol-1-yl)phenoxy]-N-1,3-thiazol-2-ylbenzenesulfonamide], for which the half-maximal inhibitory concentration (IC50) was 1200 nM.

Regarding `CCc1cc(-n2ccc(C(F)(F)F)n2)ccc1Oc1ccc(S(=O)(=O)Nc2nccs2)cc1C#N` [Example 490, 3-cyano-4-{2-ethyl-4-[3-(trifluoromethyl)-1H-pyrazol-1-yl]phenoxy}-N-1,3-thiazol-2-ylbenzenesulfonamide], the 50% inhibitory concentration (IC50) is 660 nM.

On to `N#Cc1cc(S(=O)(=O)Nc2nccs2)ccc1Oc1ccc(-n2cccn2)cc1C(F)(F)F` [Example 491, 3-cyano-4-[4-(1H-pyrazol-1-yl)-2-(trifluoromethyl)phenoxy]-N-1,3-thiazol-2-ylbenzenesulfonamide], for which the concentration for half-maximal inhibition (IC50) was >1000 nM.

As to `N#Cc1cc(S(=O)(=O)Nc2nccs2)ccc1Oc1ccc(-n2ccc(C(F)(F)F)n2)cc1C(F)(F)F` [Example 492, 3-cyano-N-1,3-thiazol-2-yl-4-{2-(trifluoromethyl)-4-[3-(trifluoromethyl)-1H-pyrazol-1-yl]phenoxy}benzenesulfonamide], the IC50 is 1500 nM.

As to `N#Cc1cc(S(=O)(=O)Nc2nccs2)ccc1Oc1ccc(Cl)cc1CN1CCOCC1` [Example 493, 4-[4-chloro-2-(morpholin-4-ylmethyl)phenoxy]-3-cyano-N-1,3-thiazol-2-ylbenzenesulfonamide], the IC50 is 580 nM.

Consider `Cn1ccc(-c2ccc(F)cc2Oc2ccc(S(=O)(=O)Nc3nccs3)cc2C#N)n1` [Example 494, 3-cyano-4-[5-fluoro-2-(1-methyl-1H-pyrazol-3-yl)phenoxy]-N-1,3-thiazol-2-ylbenzenesulfonamide], for which the concentration for half-maximal inhibition (IC50) is 2500 nM.

As to `COC(=O)c1cc(Oc2ccc(S(=O)(=O)Nc3nccs3)cc2C#N)ccc1-n1cc(Cl)cn1` [Example 495, methyl 2-(4-chloro-1H-pyrazol-1-yl)-5-{2-cyano-4-[(1,3-thiazol-2-ylamino)sulfonyl]phenoxy}benzoate], the IC50 was >1000 nM.

`COCc1cc(Oc2ccc(S(=O)(=O)Nc3nccs3)cc2C#N)ccc1-n1cc(Cl)cn1` [Example 496, 4-[4-(4-chloro-1H-pyrazol-1-yl)-3-(methoxymethyl)phenoxy]-3-cyano-N-1,3-thiazol-2-ylbenzenesulfonamide]: the IC50 is 3800 nM.

For `N#Cc1cc(S(=O)(=O)Nc2nccs2)ccc1Oc1ccc(-n2cc(Cl)cn2)c(C(=O)O)c1` [Example 497, 2-(4-chloro-1H-pyrazol-1-yl)-5-{2-cyano-4-[(1,3-thiazol-2-ylamino)sulfonyl]phenoxy}benzoic acid], the concentration for half-maximal inhibition (IC50) was >1000 nM.

Consider `N#Cc1cc(S(=O)(=O)Nc2ncns2)ccc1Oc1ccc(F)cc1-c1ccn[nH]1` [Example 499, 3-cyano-4-[4-fluoro-2-(1H-pyrazol-5-yl)phenoxy]-N-1,2,4-thiadiazol-5-ylbenzenesulfonamide], for which the IC50 is 190 nM.

Consider `CCn1nc(C(F)(F)F)cc1-c1ccc(Oc2ccc(S(=O)(=O)Nc3ncns3)cc2C#N)cc1` [Example 500, 3-cyano-4-{4-[1-ethyl-3-(trifluoromethyl)-1H-pyrazol-5-yl]phenoxy}-N-1,2,4-thiadiazol-5-ylbenzenesulfonamide], for which the IC50 was 88 nM.

For `Cn1nccc1-c1cc(Br)ccc1Oc1ccc(S(=O)(=O)Nc2ncns2)cc1C#N` [Example 501, 4-[4-bromo-2-(1-methyl-1H-pyrazol-5-yl)phenoxy]-3-cyano-N-1,2,4-thiadiazol-5-ylbenzenesulfonamide], the IC50 is 40 nM.

Regarding `N#Cc1cc(S(=O)(=O)Nc2ncns2)ccc1Oc1ccc(OC(F)(F)F)cc1-c1cn[nH]c1` [Example 502, 3-cyano-4-[2-(1H-pyrazol-4-yl)-4-(trifluoromethoxy)phenoxy]-N-1,2,4-thiadiazol-5-ylbenzenesulfonamide], the IC50 is 22 nM.

Consider `N#Cc1cc(S(=O)(=O)Nc2ncns2)ccc1Oc1ccc(Br)cc1-c1cn[nH]c1` [Example 503, 4-[Bromo-2-(1H-pyrazol-4-yl)phenoxy]-3-cyano-N-1,2,4-thiadiazol-5-ylbenzenesulfonamide], for which the IC50 was 7 nM.

As to `CC(=O)c1cccc(-c2cc(Cl)ccc2Oc2ccc(S(=O)(=O)Nc3ncns3)cc2C#N)c1` [Example 504, 4-[(3′-acetyl-5-chlorobiphenyl-2-yl)oxy]-3-cyano-N-1,2,4-thiadiazol-5-ylbenzenesulfonamide], the half-maximal inhibitory concentration (IC50) was 4.9 nM.

Regarding `N#Cc1cc(S(=O)(=O)Nc2ncns2)ccc1Oc1ccc(Cl)cc1C1CCNCC1` [Example 505, 4-(4-chloro-2-piperidin-4-ylphenoxy)-3-cyano-N-1,2,4-thiadiazol-5-ylbenzenesulfonamide], the IC50 was 50 nM.

For `N#Cc1cc(S(=O)(=O)Nc2ncns2)ccc1Oc1ccc(I)cc1-c1ccn[nH]1` [Example 506, 3-cyano-4-[4-iodo-2-(1H-pyrazol-5-yl)phenoxy]-N-1,2,4-thiadiazol-5-ylbenzenesulfonamide], the IC50 was 11 nM.

With `Cn1nccc1-c1ccc(I)cc1Oc1ccc(S(=O)(=O)Nc2ncns2)cc1C#N` [Example 507, 3-cyano-4-[5-iodo-2-(1-methyl-1H-pyrazol-5-yl)phenoxy]-N-1,2,4-thiadiazol-5-ylbenzenesulfonamide], the IC50 was 11 nM.

(Values after patent US8541588B2, “Sulfonamide derivatives” (Pfizer Limited, priority 2009, dated 2013).)
